Values after ≈ are worked out from the molar mass of the structure shown.
Columns and labels:
[1] = metabolic stability in mouse liver microsomes; type: in vitro ADME; settings: for half-life: mouse, liver microsomes, pH 7.4; for metabolic stability: mouse liver microsomes, 37 °C, pH 7.4, NADPH-generating system
[2] = tested on: BJ-derived cell lines (BJeLR, DRD, BJeHLT, BJeH); test: potency and genotype-selective lethality in BJ-derived isogenic cell lines; type: cell-based, human; settings: for potency in HRAS^G12V-overexpressing cell lines: BJeLR, DRD cells
[3] = tested on: HT-1080 human fibrosarcoma cell line; test: growth inhibition of HT-1080 cells; type: cell-based; settings: for growth inhibition: HT-1080 cells, 48 h treatment
[4] = stability in mouse plasma; type: in vitro ADME; settings: 500 ng/mL, 37 °C, up until 120 min
[5] = tested on: NRAS mutant human HT-1080 fibrosarcoma; settings: nude mice; cited from earlier work
water solubility = type: physicochemical

Structure (SMILES) | half-life [1] [min] | potency in HRAS^G12V-overexpressing cell lines [2] | metabolic stability [1] | other results
CC(C)Oc1ccc(C(=O)CN2CCNCC2)cc1-n1c(CN2CCN(C(=O)COc3ccc(Cl)cc3)CC2)nc2ccccc2c1=O [PKE, piperazine ketone erastin] | > 90 | low nanomolar potencies |  | growth inhibition [3]: complete growth inhibition; stability in mouse plasma [4]: remained stable
CC(C)Oc1ccc(CN2CCNCC2)cc1-n1c(CN2CCN(C(=O)COc3ccc(Cl)cc3)CC2)nc2ccccc2c1=O [PE, piperazine erastin] |  |  |  | effect on the growth of already established tumors [5]: limited effect
CC(C)Oc1ccc(C(=O)CF)cc1-n1c(CN2CCN(C(=O)COc3ccc(Cl)cc3)CC2)nc2ccccc2c1=O [FKE, α-fluoro ketone erastin] |  | low nanomolar potencies | medium to poor metabolic stability | 
CC(=O)c1ccc(OC(C)C)c(-n2c(CN3CCN(C(=O)COc4ccc(Cl)cc4)CC3)nc3ccccc3c2=O)c1 [KE] | < 5 | low nanomolar potencies |  | 
CC(C)Oc1ccc(C(=O)Cn2ccnc2)cc1-n1c(CN2CCN(C(=O)COc3ccc(Cl)cc3)CC2)nc2ccccc2c1=O [IKE, imidazole ketone erastin] |  | low nanomolar potencies |  | selective lethality to BJeLR and DRD cells compared to BJeH and BJeHLT cells ([2]; 4 isogenic BJ-derived cell lines): selective lethality; growth inhibition [3]: complete growth inhibition; GI50 ([3]; Homo sapiens, HT-1080, 48 h): 0.31 µM; stability in mouse plasma [4]: remained stable
CC(C)Oc1ccc(C(=O)CN2CCN(C)CC2)cc1-n1c(CN2CCN(C(=O)COc3ccc(Cl)cc3)CC2)nc2ccccc2c1=O [MPKE, N-methylpiperazine ketone erastin] |  |  | medium to poor metabolic stability | 
COc1ccc(CN2CCN(CC(=O)c3ccc(OC(C)C)c(-n4c(CN5CCN(C(=O)COc6ccc(Cl)cc6)CC5)nc5ccccc5c4=O)c3)CC2)cc1 [PMB-PKE, N-p-methoxybenzylpiperazine ketone erastin] |  |  | medium to poor metabolic stability | 
CCOc1ccccc1-n1c(C(C)N2CCN(C(=O)COc3ccc(Cl)cc3)CC2)nc2ccccc2c1=O (centres unmarked) [Erastin, erastin] |  |  |  | solubility (water solubility): 86 µM (≈ 47 µg/mL)
CC(C)Oc1ccc(C=O)cc1-n1c(CN2CCN(C(=O)COc3ccc(Cl)cc3)CC2)nc2ccccc2c1=O [AE, aldehyde erastin, reference compound] | < 5 | low nanomolar potencies |  | 
C=CCN1CCN(CC(=O)c2ccc(OC(C)C)c(-n3c(CN4CCN(C(=O)COc5ccc(Cl)cc5)CC4)nc4ccccc4c3=O)c2)CC1 [APKE, N-allylpiperazine ketone erastin] |  |  | medium to poor metabolic stability | 
